Patent US7399583B2, “Method for the identification of inhibitors of the binding of ARE-containing mRNA and a HuR protein” (Novartis AG, priority 2002, dated 2008)
Each block holds one substance with its values, some of them ahead of it.

What was measured:
[1] = biological target: T1, sfl-HuR (soluble form of full length HuR) (Homo sapiens, UniProt Q15717); assay: 2D-FIDA-r anisotropy assay: titration of fluorescently labeled ARE RNA fragments against sfl-HuR; type: binding; settings: 2D-FIDA-r assay, RNA fragment 5'-terminally labeled with 5'-carboxy-TMR; for Kd: read-out: Kd sfl-HuR in nM +/- St. dev.
T1 construct: made in house; host or cells: E. coli ER2566
T1 sequence (Q15717 whole entry, the tested form may be a part): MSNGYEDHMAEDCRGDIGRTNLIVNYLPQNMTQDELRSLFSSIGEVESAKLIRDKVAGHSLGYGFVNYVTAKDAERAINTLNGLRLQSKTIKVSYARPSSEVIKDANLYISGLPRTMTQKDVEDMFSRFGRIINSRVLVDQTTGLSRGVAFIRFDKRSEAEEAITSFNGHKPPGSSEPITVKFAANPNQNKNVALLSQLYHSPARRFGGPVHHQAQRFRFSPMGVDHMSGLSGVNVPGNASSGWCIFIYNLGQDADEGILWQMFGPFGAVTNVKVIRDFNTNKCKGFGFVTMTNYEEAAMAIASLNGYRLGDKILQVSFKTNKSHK
Experimental: (§1) In a preferred embodiment an assay of the present invention is performed by use of 2 dimensional-FIDA anisotropy analysis, wherein the fluorescence anisotropy of the complex between mRNA and HuR is determined at single molecule sensitivity by extension of the microscopic confocal detection setup to two polarisation channels.
(§2) Titration of fluorescently labeled RNA fragments corresponding to the AREs of, for example, IL-2, IL-4, IL-8, Cox-2, IL-1β or TNF-α (5′-terminally labeled with 5′-carboxy-TMR and 33, 58, 26, 35, 33 and 34 nts in length, respectively), against increasing concentrations of a soluble form of recombinant full-length HuR or HuR12 is performed.
(§3) In vitro, individual AU rich elements are bound to HuR with different affinity, although they are derived from mRNA targets which are known to be associated with HuR-mediated regulation. This fragment selectivity is retained when the third RRM as well as the hinge region are missing as is the case for HuR12. […] However, the full length protein binds to all fragments with a higher affinity. The Kd is lower by an almost constant factor of 50. In contrast, the low affinity fragments (Kd for HuR12>1 μM) are no longer recognized by the full length protein at all (see TABLE 1).

HuR12 = biological target: T2, HuR12 (Homo sapiens, UniProt Q15717); assay: 2D-FIDA-r anisotropy assay: titration of fluorescently labeled ARE RNA fragments against HuR12; type: binding; settings: 2D-FIDA-r assay, RNA fragment 5'-terminally labeled with 5'-carboxy-TMR; for Kd: read-out: Kd HuR12 in nM +/- St. dev.
T2 construct: Mxe-intein-CBD tag (IMPACT-TWIN, pTWIN1) (C, cleaved yes); 2-MESNA thioester on the C-terminal carboxyl group (>95% of the material); made in house; host or cells: E. coli ER2566 (pTWIN1/HuR12)
T2 sequence (Q15717 2-189): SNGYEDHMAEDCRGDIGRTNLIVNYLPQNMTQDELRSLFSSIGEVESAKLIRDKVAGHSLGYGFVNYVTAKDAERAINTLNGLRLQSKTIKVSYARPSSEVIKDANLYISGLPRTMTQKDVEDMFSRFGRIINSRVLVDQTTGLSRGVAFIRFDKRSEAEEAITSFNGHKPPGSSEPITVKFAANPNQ
Experimental: as §1, §2, §3

[2] = Solubility: no aggregation and precipitation in aqueous buffer (size exclusion chromatography and/or UV-spectroscopy); type: physicochemical; settings: aqueous buffer of physiological pH; for concentration at which no aggregation and precipitation is seen: spectroscopy-compatible conditions
Experimental: The concentration of protein used in an assay of the present invention depends on the binding affinity between a specific mRNA (fragment) and HuR, e.g. the protein concentration used in an assay of the present invention may be lower in case there is a high binding affinity between the two species or vice versa. Solvent include aqueous solvent, e.g. buffer solution, e.g. aqueous physiological buffer solution.
Expression of the cloned HuR-Intein-CBD fusion protein is induced by addition of 1 mM IPTG to a bacterial culture grown to late-logarithmic phase in LB broth medium and allowed to proceed for 6 hours at 28°. The bacterial cells are lysed by successive freezing/thawing cycles in a buffer of 20 mM Tris/Cl pH 8.0, 800 mM NaCl, 1 mM EDTA and 0.2% Pluronic F-127 (Molecular Probes). After DNA digestion, the bacterial lysates are cleared by ultracentrifugation and the fusion protein is captured onto chitin agarose beads (New England Biolabs) via the CBD. After extensive washing of the beads with lysis buffer, the recombinant protein is recovered by thiol-induced on-column self-splicing of the intein tag by addition of Na-2-MESNA to a final concentration of 50 mM and incubation for 12 hours at 4°. Any co-eluted intein tag and un-cleaved fusion protein are removed from the eluate in a second, subtractive affinity step. […]
The quality of the purified protein is controlled by denaturing SDS-PAGE, UV-spectroscopy, analytical Size Exclusion Chromatography, RP-HPLC analysis, LC/ESI-MS analysis and CD-spectroscopy, following standard protocols as described in example 2. […] Results from UV-spectroscopy, showing no absorbance at >330 nm, and analytical size exclusion chromatography, where HuR elutes as a single peak with a maximum at 24.2 kD, provide evidence that no higher aggregation states of the protein are present at the given buffer concentrations.
The folding of the protein after the purification procedure as well as following fluorescent labeling is monitored by CD-Spectroscopy.

full length HuR = biological target: T3, full length HuR (Homo sapiens, UniProt Q15717); assay: Deduction of the HuR binding site: affinities of RNA fragments to full length HuR
T3 construct: made in house; host or cells: E. coli ER2566
T3 sequence (Q15717 whole entry, the tested form may be a part): as the sequence (Q15717 whole entry, the tested form may be a part) above
Experimental: Individual RNA fragments are synthesized and the affinities (given as Kd values) to full length HuR are determined (see TABLE 2). […] An influence of the fluorescent dye is excluded by competition experiments with unlabeled RNA fragments. […] Fragments 5, 6, 7a-7d and 8a-8c serve to tests tolerance for non-Uracil (exemplified by A=adenine) and C, respectively, at the depicted (bold and underlined) positions. […] This interaction appears to follow an all-or-nothing mechanism: While sequences with single mismatches are not recognized, sequences fulfilling this motif are bound with high affinity and an invariable Kd, Kdfund, of 0.99 nM.

Substance: UAUUUAUUUAUUUAUUUGUUUGUUUGUUUUAUU (chemistry not given here) [IL-1β, synthetic RNA fragment of the IL-1β ARE, 5'-TMR labeled]
Kd [1]: 0.12 nM
Kd (HuR12): 18.4 nM

Substance: AUUAUUUAUUAUUUAUUUAUUAUUUAUUUAUUUA (chemistry not given here) [TNF-α, synthetic RNA fragment of the TNF-α ARE, 5'-terminally labeled with 5'-carboxy-TMR]
Kd [1]: 0.35 nM
Kd (HuR12): 21.4 nM

Substance: sfl-HuR: full-length human HuR (SEQ ID NO:1 or 2) whose C-terminal amino acid is esterified by Na-2-MESNA as a thioester
concentration at which no aggregation and precipitation is seen [2]: > 0.5 µM

binding / recognition by HuR (in words) (full length HuR; full length HuR): bound by HuR with high affinity
Substance: polyU [reference compound]

Substance: 4c (AUUUAUUUAUUUA; chemistry not given here)
Kd (in nM) (full length HuR; binding to full length HuR): not bound

Substance: UAUUUAUUAUUUAUGUAUUUAUUUAA (chemistry not given here) [IL-8, synthetic RNA fragment of the IL-8 ARE, 5'-TMR labeled]
Kd [1]: 1.09 nM
Kd (HuR12): 42.9 nM

Substance: AUUUAUUUAUUUAUUUAUUUA (chemistry not given here) [(AUUU)5A]
Kd [1]: 0.4 nM
Kd (HuR12): 23.5 nM

Substance: AUUUUAAUUUAUGAGUUUUUGAUAGCUUUAUUUUUUAAGUAUUUAUAUAUUUAUAA (chemistry not given here) [IL-4, synthetic RNA fragment of the IL-4 ARE, 5'-TMR labeled]
Kd [1]: 3.21 nM
Kd (HuR12): 154 nM

Substance: UAUUAAUUUAAUUAUUUAAUAAUAUUUAUAUUAAA (chemistry not given here) [Cox-2 (2), synthetic RNA fragment of the Cox-2 ARE, 5'-TMR labeled]
Kd [1]: 13.6 nM
Kd (HuR12): 229 nM

Substance: wild-type full length HuR: unmodified wild-type full length HuR protein
solubility in aqueous solvent (in words) ([2]; without micelle-forming detergents or glycerol, protein >0.5 μM): practically insoluble

Substance: AUUAUUAUUAUUAUUA (chemistry not given here) [(AUU)5A]
Kd sfl-HuR in nM +/- St. dev. [1]: n.b.
Kd (HuR12): 1590 nM

Substance: UAGAGUUCAUCGCAAUUGCAC (chemistry not given here) [irrelevant seq., reference compound]
Kd sfl-HuR in nM +/- St. dev. [1]: n.b.
Kd HuR12 in nM +/- St. dev. (HuR12): n.b.

Substance: UAUUUAUUUAAAUAUUUAAAUUUUAUAUUUAUU (chemistry not given here) [IL-2, synthetic RNA fragment of the IL-2 ARE, 5'-TMR labeled]
Kd [1]: 9.5 nM
Kd (HuR12): 498 nM

Substance: AUUUAUUUAUUUAUUUA (chemistry not given here) [(AUUU)4A]
Kd [1]: 2.09 nM
Kd (HuR12): 126 nM

Substance: HuR12: HuR variant encompassing the first two RRMs, aa1-189 or aa2-189 of SEQ ID NO:1
concentration at which no aggregation and precipitation is seen [2]: > 100 µM

Substance: 4a (AUUUAUUUAUUUA; chemistry not given here)
Kd (full length HuR; binding to full length HuR): 1.4 nM
Kd (in nM) (full length HuR; binding to full length HuR): not bound

Substance: 4d (AUUUAUUUAUUUA; chemistry not given here)
Kd (in nM) (full length HuR; binding to full length HuR): not bound
